In patent US20040156869A1, “2-substituted quinazolin-4-ylamine analogues” (Neurogen Corporation, priority 2002, published 2004):

These compounds were tested against human capsaicin receptor (VR1) (Homo sapiens, UniProt Q8NER1) (assay: Capsaicin receptor binding assay ([3H]RTX competition, VR1-transfected HEK293 membranes)).
Chain of human capsaicin receptor (VR1) (Q8NER1 whole entry): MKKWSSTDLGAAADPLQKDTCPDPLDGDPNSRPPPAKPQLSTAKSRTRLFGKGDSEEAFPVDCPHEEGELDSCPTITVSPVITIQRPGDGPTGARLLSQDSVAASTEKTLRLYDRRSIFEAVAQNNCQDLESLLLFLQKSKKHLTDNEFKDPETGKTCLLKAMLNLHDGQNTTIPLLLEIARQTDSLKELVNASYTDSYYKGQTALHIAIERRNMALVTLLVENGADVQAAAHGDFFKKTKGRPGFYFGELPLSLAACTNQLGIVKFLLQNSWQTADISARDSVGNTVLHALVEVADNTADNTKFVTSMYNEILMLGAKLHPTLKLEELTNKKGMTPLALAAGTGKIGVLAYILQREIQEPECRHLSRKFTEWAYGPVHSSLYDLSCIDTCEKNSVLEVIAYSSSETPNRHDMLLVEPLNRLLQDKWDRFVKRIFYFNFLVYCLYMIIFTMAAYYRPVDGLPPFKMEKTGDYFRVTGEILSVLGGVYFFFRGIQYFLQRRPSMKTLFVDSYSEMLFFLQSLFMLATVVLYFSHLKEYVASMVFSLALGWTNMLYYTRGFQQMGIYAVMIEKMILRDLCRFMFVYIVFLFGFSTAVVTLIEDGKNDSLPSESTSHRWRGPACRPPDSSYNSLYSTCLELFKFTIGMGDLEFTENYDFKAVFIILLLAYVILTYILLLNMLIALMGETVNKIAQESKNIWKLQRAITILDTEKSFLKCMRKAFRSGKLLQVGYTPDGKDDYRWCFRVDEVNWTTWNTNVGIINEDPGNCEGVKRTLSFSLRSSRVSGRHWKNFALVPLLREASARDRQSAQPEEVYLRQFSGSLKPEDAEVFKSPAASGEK
Compound `COCc1nc(Nc2ccc(C(C)=O)cc2)c2ncc(-c3ncccc3C(F)(F)F)cc2n1` [Compound 54, 1-{4-[2-Methoxymethyl-7-(3-trifluoromethyl-pyridin-2-yl)-pyrido[3,2-d]pyrimidin-4-ylamino]-phenyl}-ethanone] has a Ki of less than 1000 nM. For `COCc1cc(Nc2ccc(Cl)cc2)c2ccc(-c3ncccc3C(F)(F)F)nc2n1` [Compound 302, (4-Chloro-phenyl)-[2-methoxymethyl-7-(3-trifluoromethyl-pyridin-2-yl)-[1,8]naphthyridin-4-yl]-amine], the Ki was less than 1000 nM. `CC(=O)c1ccc(Nc2nc(COCC(C)C)nc3nc(-c4ncccc4C(F)(F)F)ccc23)cc1` [Compound 250, 1-{4-[2-Isobutoxymethyl-7-(3-trifluoromethyl-pyridin-2-yl)-pyrido[2,3-d]pyrimidin-4-ylamino]-phenyl}-ethanone] was tested, and the Ki was less than 1000 nM. Compound `CN(C)CCCN1CCN(Cc2nc(Nc3ccc(C(F)(F)F)cc3)c3ccc(-c4ncccc4C(F)(F)F)cc3n2)CC1` [Compound 519, [2-[4-(3-Dimethylamino-propyl)-piperazin-1-ylmethyl]-7-(3-trifluoromethyl-pyridin-2-yl)-quinazolin-4-yl]-(4-trifluoromethyl-phenyl)-amine] has a Ki of less than 1000 nM. `CCOCc1nc(Nc2ccc(C(F)(F)F)nc2)c2ccc(-c3ncccc3C(F)(F)F)nc2n1` [Compound 224, [2-Ethoxymethyl-7-(3-trifluoromethyl-pyridin-2-yl)-pyrido[2,3-d]pyrimidin-4-yl]-(6-trifluoromethyl-pyridin-3-yl)-amine] showed a Ki of less than 1000 nM. `CCCCOc1ccc(Nc2nc(COCC(C)C)nc3nc(-c4ncccc4Cl)ccc23)cc1` [Compound 278, (4-Butoxy-phenyl)-[7-(3-chloro-pyridin-2-yl)-2-isobutoxymethyl-pyrido[2,3-d]pyrimidin-4-yl]-amine] gave a Ki of less than 1000 nM. For `COCCN(CCOC)Cc1nc(Nc2ccc(C(F)(F)F)nc2)c2ccc(-c3ncccc3C(F)(F)F)cc2n1` [Compound 384, [2-{[Bis-(2-methoxy-ethyl)-amino]-methyl}-7-(3-trifluoromethyl-pyridin-2-yl)-quinazolin-4-yl]-(6-trifluoromethyl-pyridin-3-yl)-amine], the Ki was less than 1000 nM. `CCCN(C)Cc1nc(Nc2ccc(C(F)(F)F)cc2)c2ccc(-c3ncccc3C(F)(F)F)cc2n1` [Compound 330] showed a Ki of less than 1000 nM. `COCc1nc(Nc2ccc(C(C)C(F)(F)F)cc2)c2ccc(-c3ncccc3C(F)(F)F)nc2n1` (centres unmarked) [Compound 94, [2-Methoxymethyl-7-(3-trifluoromethyl-pyridin-2-yl)-pyrido[2,3-d]pyrimidin-4-yl]-[4-(2,2,2-trifluoro-1-methyl-ethyl)-phenyl]-amine] was tested, and the Ki was less than 1000 nM. In the case of `CC(C)[C@@H](OCc1nc(Nc2ccc(C(C)(C)C)cc2)c2ccc(-c3ncccc3C(F)(F)F)cc2n1)C(=O)O` [Compound 234, 2-[4-(4-tert-Butyl-phenylamino)-7-(3-trifluoromethyl-pyridin-2-yl)-quinazolin-2-ylmethoxy]-3-methyl-butyric acid (R)], the Ki is reported as less than 1000 nM. For `Cc1ccc(Nc2nc(COCC(C)C)nc3nc(-c4ncccc4C(F)(F)F)ccc23)cc1C(F)(F)F` [Compound 276, [2-Isobutoxymethyl-7-(3-trifluoromethyl-pyridin-2-yl)-pyrido[2,3-d]pyrimidin-4-yl]-(4-methyl-3-trifluoromethyl-phenyl)-amine], the Ki was less than 1000 nM. With `CC(C)COCc1nc(Nc2ccc(F)cc2)c2ccc(-c3ncccc3Cl)nc2n1` [Compound 259, [7-(3-Chloro-pyridin-2-yl)-2-isobutoxymethyl-pyrido[2,3-d]pyrimidin-4-yl]-(4-fluoro-phenyl)-amine] the Ki was less than 1000 nM. Compound `CN1CCC(OCc2nc(Nc3ccc(C(F)(F)F)nc3)c3ccc(-c4ncccc4C(F)(F)F)cc3n2)CC1` [Compound 31, [2-(1-Methyl-piperidin-4-yloxymethyl)-7-(3-trifluoromethyl-pyridin-2-yl)-quinazolin-4-yl]-(6-trifluoromethyl-pyridin-3-yl)-amine] has a Ki of less than 1000 nM. `Cc1cccnc1-c1ccc2c(Nc3ccc(C(F)(F)F)cc3)nc(CN3CC[C@@H](O)C3)nc2c1` [Compound 732, (R)-1-[7-(3-Methyl-pyridin-2-yl)-4-(4-trifluoromethyl-phenylamino)-quinazolin-2-ylmethyl]-pyrrolidin-3-ol] was tested, and the Ki was less than 1000 nM. With `CC1(C)CN(Cc2nc(Nc3ccc(C4CC4)cc3)c3ccc(-c4ncccc4C(F)(F)F)cc3n2)CCO1` [Compound 741, (4-Cyclopropyl-phenyl)-[2-(2,2-dimethyl-morpholin-4-ylmethyl)-7-(3-trifluoromethyl-pyridin-2-yl)-quinazolin-4-yl]-amine] the Ki was less than 1000 nM. `CC(C)(C)CNC(=O)c1nc(Nc2ccc(C(F)(F)F)cc2)c2ccc(-c3ncccc3C(F)(F)F)nc2n1` [Compound 458, 4-(4-Trifluoromethyl-phenylamino)-7-(3-trifluoromethyl-pyridin-2-yl)-pyrido[2,3-d]pyrimidine-2-carboxylic acid (2,2-dimethyl-propyl)-amide] showed a Ki of less than 1000 nM. With `CCN(Cc1nc(Nc2ccc(C(F)(F)F)nc2)c2ccc(-c3ncccc3C(F)(F)F)cc2n1)C(C)C` [Compound 371, [2-[(Ethyl-isopropyl-amino)-methyl]-7-(3-trifluoromethyl-pyridin-2-yl)-quinazolin-4-yl]-(6-trifluoromethyl-pyridin-3-yl)-amine] the Ki was less than 1000 nM. `CC1(C)CCCN(Cc2nc(Nc3ccc(C(F)(F)F)cc3)c3ncc(-c4ncccc4C(F)(F)F)cc3n2)C1` [Compound 661, [2-(3,3-Dimethyl-piperidin-1-ylmethyl)-7-(3-trifluoromethyl-pyridin-2-yl)-pyrido[3,2-d]pyrimidin-4-yl]-(4-trifluoromethyl-phenyl)-amine] was tested, and the Ki was less than 1000 nM. `CC(C)COCc1nc(Nc2ccc(C(F)(F)F)nc2)c2ccc(-c3ncccc3Cl)nc2n1` [Compound 177, [7-(3-Chloro-pyridin-2-yl)-2-isobutoxymethyl-pyrido[2,3-d]pyrimidin-4-yl]-(6-trifluoromethyl-pyridin-3-yl)-amine] showed a Ki of less than 1000 nM. `COCc1nc(Nc2ccc(C(F)(F)F)nc2)c2ccc(-c3ncccc3C)nc2n1` [Compound 148, [2-Methoxymethyl-7-(3-methyl-pyridin-2-yl)-pyrido[2,3-d]pyrimidin-4-yl]-(6-trifluoromethyl-pyridin-3-yl)-amine] showed a Ki of less than 1000 nM. `CCOC(=O)c1nc(Nc2ccc(C(C)(C)C)cc2)c2ccc(-c3ncccc3C)nc2n1` [Compound 185, 4-(4-tert-Butyl-phenylamino)-7-(3-methyl-pyridin-2-yl)-pyrido[2,3-d]pyrimidine-2-carboxylic acid ethyl ester] was tested, and the Ki was less than 1000 nM. Work on `CN(C)CCCOCc1nc(Nc2ccc(C(F)(F)F)cc2)c2ccc(-c3ncccc3C(F)(F)F)cc2n1` [Compound 89, [2-(3-Dimethylamino-propoxymethyl)-7-(3-trifluoromethyl-pyridin-2-yl)-quinazolin-4-yl]-(4-trifluoromethyl-phenyl)-amine] yielded a Ki of less than 1000 nM. With `CCOC(=O)C1CCN(Cc2nc(Nc3ccc(C(F)(F)F)nc3)c3ccc(-c4ncccc4C(F)(F)F)cc3n2)CC1` [Compound 491, 1-[7-(3-Trifluoromethyl-pyridin-2-yl)-4-(6-trifluoromethyl-pyridin-3-ylamino)-quinazolin-2-ylmethyl]-piperidine-4-carboxylic acid ethyl ester] the Ki was less than 1000 nM.
